Data reported in patent US20240398817A1, “CARDIO- AND RENOSAFE ANTIDIABETIC THERAPY” (priority 2018, published 2024).

System: patients with type 2 diabetes at high vascular risk
Assay: Cardiovascular and Renal Outcomes Trial: linagliptin 5 mg once daily vs placebo on top of standard of care
Type: in vivo
Settings: for Hazard ratio for hospitalised heart failure: vs placebo
Method: The effect of linagliptin on cardiovascular risk in adult patients with type 2 diabetes mellitus and with increased CV risk evidenced by a history of established macrovascular or renal disease (e.g. as defined herein) was evaluated in a multi-center, multi-national, randomized, double-blind parallel group trial. The trial compared the risk of experiencing a major adverse cardiovascular event (MACE) between linagliptin and placebo when these were added to and used concomitantly with standard of care treatments for diabetes (HbA1c), cardiovascular risk factors and renal disease.
The primary endpoint in this trial was the time to first occurrence of three point (3P) MACE. A major adverse cardiac event was defined as a cardiovascular death or a nonfatal myocardial infarction (MI) or a nonfatal stroke. The statistical analysis plan tested for non-inferiority for the occurrence of (3P) MACE. […] The secondary endpoint was a renal composite, defined as renal death or sustained end stage renal disease or sustained decrease of 40% or more in eGFR.
Type 2 diabetes patient with insufficient glycemic control (naïve or pre-treated with any antidiabetic background medication, excluding treatment with GLP-1 receptor agonists, DPP-4inhibitors or SGLT-2 inhibitors if ≥consecutive 7 days, e.g. having HbA1c 6.5-10%), and high risk of cardiovascular events, e.g. defined by: • albuminuria (micro or macro) and previous macrovascular disease: e.g. defined according to Condition I as indicated below; • and/or • impaired renal function: e.g. as defined according to Condition II as indicated below;
Background and aims: People with type 2 diabetes (T2D) are at increased risk for hospitalization for heart failure (hHF), particularly in the setting of concomitant cardiovascular (CV) and/or kidney disease. […] Here we present analyses of HF outcomes with the DPP-4 inhibitor linagliptin (LINA) vs. placebo (PBO) from a Cardiovascular and Renal Outcomes Trial assessing cardiovascular safety and renal microvascular outcome in patients with type 2 diabetes at high vascular risk, a large CV outcomes trial that enrolled participants with T2D at high risk for hHF due to concomitant CV and/or chronic kidney disease. Materials and methods: People with T2D and concomitant CV and/or kidney disease were randomized to receive LINA 5 mg, or PBO once daily (1:1), on top of standard of care. All hHF, CV outcomes, and deaths were centrally adjudicated, with individual and composite HF-related outcomes analyses comparing LINA vs. placebo. Investigator-reported HF-related adverse events, whether or not confirmed by adjudication, were also analyzed. A Cox proportional hazards model adjusting for region and history of HF was used for analyses of first events. Recurrent hHF events were analyzed using a negative binomial model.
Methods: The present Cardiovascular and Renal Outcomes Trial randomized people with T2D and i) concomitant CV disease with UACR >30 mg/g or ii) prevalent CKD (i.e. GFR <45 ml/min/1.73m2 and/or UACR >200 mg/g) to receive the DPP-4 inhibitor linagliptin (5 mg) or placebo once daily in a double-blind fashion. The primary CV endpoint was 3P-MACE, with a key secondary kidney endpoint (adjudicated ESKD, renal death, or sustained ≥40% decrease in eGFR from baseline) and other renal outcomes (including albuminuria and eGFR slope) also assessed. Subgroups were assessed by baseline kidney function (eGFR ≥/<45 ml/min/1.73m2and eGFR ≥/<30, 45 or 60 ml/min/1.73m2).
Adults with type 2 diabetes, HbA1c 6.5-10.0% inclusive, and high CV risk were eligible for inclusion. […] Macrovascular disease eligibility criteria was based on documented and confirmed history of myocardial infarction, coronary artery disease, stroke, carotid artery disease, or peripheral artery disease. Participants with end-stage kidney disease (ESKD), defined as eGFR <15 or requiring maintenance dialysis, were excluded.

[1] = Urine albumin-to-creatinine ratio 30 to 300 mg/g
[2] = Urine albumin-to-creatinine ratio <30 mg/g
[3] = Urine albumin-to-creatinine ratio >300 mg/g

CC#CCn1c(N2CCC[C@@H](N)C2)nc2c1c(=O)n(Cc1nc(C)c3ccccc3n1)c(=O)n2C [Linagliptin, 1-[(4-methyl-quinazolin-2-yl)methyl]-3-methyl-7-(2-butyn-1-yl)-8-(3-(R)-amino-piperidin-1-yl)-xanthine]
3-point MACE: hazard ratio vs placebo (Race Other): 1.86
3-point MACE: patients with event/patients analyzed (Race Other): 23/166
Key secondary kidney outcome: hazard ratio vs placebo (Race Other): 1.16
Key secondary kidney outcome: patients with event/patients analyzed (Race Other): 23/166
Patients with event/patients analysed, hospitalised heart failure (Race Other): 6/166
3-point MACE: hazard ratio vs placebo (Race White): 0.97
3-point MACE: patients with event/patients analyzed (Race White): 340/2827
Key secondary kidney outcome: hazard ratio vs placebo (Race White): 1.03
Key secondary kidney outcome: patients with event/patients analyzed (Race White): 237/2827
Patients with event/patients analysed, hospitalised heart failure (Race White): 174/2827
3-point MACE: hazard ratio vs placebo (Region Asia): 0.90
3-point MACE: patients with event/patients analyzed (Region Asia): 29/272
Key secondary kidney outcome: hazard ratio vs placebo (Region Asia): 0.96
Key secondary kidney outcome: patients with event/patients analyzed (Region Asia): 29/272
Patients with event/patients analysed, hospitalised heart failure (Region Asia): 12/272
Hazard ratio for hospitalised heart failure (Region Asia): 0.47
3-point MACE: hazard ratio vs placebo (Region Europe + South Africa): 0.92
3-point MACE: patients with event/patients analyzed (Region Europe + South Africa): 182/1473
Key secondary kidney outcome: hazard ratio vs placebo (Region Europe + South Africa): 0.96
Key secondary kidney outcome: patients with event/patients analyzed (Region Europe + South Africa): 98/1473
Patients with event/patients analysed, hospitalised heart failure (Region Europe + South Africa): 101/1473
Hazard ratio for hospitalised heart failure (Region Europe + South Africa): 1.13
3-point MACE: hazard ratio vs placebo (Region Latin America): 1.10
3-point MACE: patients with event/patients analyzed (Region Latin America): 132/1156
Key secondary kidney outcome: hazard ratio vs placebo (Region Latin America): 1.07
Key secondary kidney outcome: patients with event/patients analyzed (Region Latin America): 149/1156
Patients with event/patients analysed, hospitalised heart failure (Region Latin America): 54/1156
Hazard ratio for hospitalised heart failure (Region Latin America): 0.99
3-point MACE: hazard ratio vs placebo (Region North America): 1.25
3-point MACE: patients with event/patients analyzed (Region North America): 91/593
Key secondary kidney outcome: hazard ratio vs placebo (Region North America): 1.19
Key secondary kidney outcome: patients with event/patients analyzed (Region North America): 51/593
Patients with event/patients analysed, hospitalised heart failure (Region North America): 42/593
Hazard ratio for hospitalised heart failure (Region North America): 0.65
Key secondary kidney outcome: hazard ratio vs placebo (SBP 140 mmHg or DBP ≥90 mmHg): 1.08
Key secondary kidney outcome: patients with event/patients analyzed (SBP 140 mmHg or DBP ≥90 mmHg): 222/1800
3-point MACE: hazard ratio vs placebo (SBP <140 mmHg and DBP <90 mmHg): 0.93
3-point MACE: patients with event/patients analyzed (SBP <140 mmHg and DBP <90 mmHg): 185/1694
Key secondary kidney outcome: hazard ratio vs placebo (SBP <140 mmHg and DBP <90 mmHg): 0.99
Key secondary kidney outcome: patients with event/patients analyzed (SBP <140 mmHg and DBP <90 mmHg): 105/1694
3-point MACE: hazard ratio vs placebo (SBP ≥140 mmHg or DBP ≥90 mmHg): 1.11
3-point MACE: patients with event/patients analyzed (SBP ≥140 mmHg or DBP ≥90 mmHg): 249/1800
3-point MACE: hazard ratio vs placebo (Sulfonylurea No): 0.98
3-point MACE: patients with event/patients analyzed (Sulfonylurea No): 315/2392
Key secondary kidney outcome: hazard ratio vs placebo (Sulfonylurea No): 1.10
Key secondary kidney outcome: patients with event/patients analyzed (Sulfonylurea No): 252/2392
Patients with event/patients analysed, hospitalised heart failure (Sulfonylurea No): 166/2392
Hazard ratio for hospitalised heart failure (Sulfonylurea No): 0.92
3-point MACE: hazard ratio vs placebo (Sulfonylurea Yes): 1.15
3-point MACE: patients with event/patients analyzed (Sulfonylurea Yes): 119/1102
Key secondary kidney outcome: hazard ratio vs placebo (Sulfonylurea Yes): 0.87
Key secondary kidney outcome: patients with event/patients analyzed (Sulfonylurea Yes): 75/1102
Patients with event/patients analysed, hospitalised heart failure (Sulfonylurea Yes): 43/1102
Hazard ratio for hospitalised heart failure (Sulfonylurea Yes): 0.82
Composite microvascular endpoint: patients, % (Table 6): (36.3) %
ESKD (component of kidney composite outcome): % (Table 6): (0.03) %
ESKD (component of kidney composite outcome): no. (Table 6): 1
Renal death, sustained ESKD, or sustained decrease of 50% or more in eGFR from baseline: % (Table 6): (7.5) %
Renal death, sustained ESKD, or sustained decrease of 50% or more in eGFR from baseline: no. (Table 6): 263
Sustained decrease of 40% or more in eGFR (component of kidney composite outcome): % (Table 6): (1.8) %
Sustained decrease of 40% or more in eGFR (component of kidney composite outcome): no. (Table 6): 63
Composite microvascular outcome: number of patients, % of n = 3494 (Table 9): 22.5%
3-point MACE: hazard ratio vs placebo (UACR 30 to 300 mg/g): 0.95
3-point MACE: patients with event/patients analyzed (UACR 30 to 300 mg/g): 158/1463
Key secondary kidney outcome: hazard ratio vs placebo (UACR 30 to 300 mg/g): 1.30
Key secondary kidney outcome: patients with event/patients analyzed (UACR 30 to 300 mg/g): 53/1463
3-point MACE: hazard ratio vs placebo (UACR <30 mg/g): 1.10
3-point MACE: patients with event/patients analyzed (UACR <30 mg/g): 67/696
Key secondary kidney outcome: hazard ratio vs placebo (UACR <30 mg/g): 1.46
Key secondary kidney outcome: patients with event/patients analyzed (UACR <30 mg/g): 22/696
3-point MACE: hazard ratio vs placebo (UACR >300 mg/g): 1.06
3-point MACE: patients with event/patients analyzed (UACR >300 mg/g): 208/1333
Key secondary kidney outcome: hazard ratio vs placebo (UACR >300 mg/g): 0.97
Key secondary kidney outcome: patients with event/patients analyzed (UACR >300 mg/g): 252/1333
Patients with event/patients analysed, hospitalised heart failure [1]: 72/1463
Hazard ratio for hospitalised heart failure [1]: 0.86
Patients with event/patients analysed, hospitalised heart failure [2]: 26/696
Hazard ratio for hospitalised heart failure [2]: 0.76
Patients with event/patients analysed, hospitalised heart failure [3]: 111/1333
Hazard ratio for hospitalised heart failure [3]: 0.99
HbA1c vs PBO across all GFR categories, in words (across GFR categories): reduced significantly
Risk for hypoglycemia vs PBO across all GFR categories, in words (across GFR categories): without increased risk for hypoglycemia
Progression of albuminuria across all eGFR categories, in words (across eGFR categories): consistent beneficial effect
3P-MACE: incidence rate per 1000 PY (all patients): 57.7 per 1000 patient years
